This is an account of results in article PMC10466336, “Chemical Probe for Imaging of Polo-like Kinase 4 and Centrioles” (JACS Au, 2023).

In assay [1] the target is T1, Plk4 kinase domain (Homo sapiens, UniProt O00444).
T1 construct: Plasmids encoding fragments of Plk4 kinase domain (2-275) with 6xHis-tag were cloned in pET system vectors; made in house; host or cells: E. coli BL21 gold (DE3)
T1 sequence (O00444 2-275): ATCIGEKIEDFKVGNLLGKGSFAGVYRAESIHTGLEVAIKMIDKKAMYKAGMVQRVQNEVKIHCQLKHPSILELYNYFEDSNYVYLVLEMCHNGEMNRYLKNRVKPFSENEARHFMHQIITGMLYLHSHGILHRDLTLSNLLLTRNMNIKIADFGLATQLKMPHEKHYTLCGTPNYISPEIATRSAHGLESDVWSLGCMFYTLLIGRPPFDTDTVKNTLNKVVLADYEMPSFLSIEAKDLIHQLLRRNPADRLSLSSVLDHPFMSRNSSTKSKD
Briefly: Competition binding assay based on fluorescence polarization (tracer Alexa488-PEG-N-centrinone). The following applies: Alexa488-PEG-N-centrinone 1 nM, Plk4-KD 5 nM. From the text: Moreover, we substituted the basic acetyl-piperazine nitrogen in compounds (1 and 2a) with an acetyl-piperidine, to avoid probe protonation and accumulation in endolysosomal compartments (Figure S1A, B).[23] […] These probes were characterized first in vitro by measuring their fluorogenicity in the presence of the 6xHis-tagged Plk4 kinase domain (KD) (Table 1). […] Next, we measured the binding affinities of the probes to the Plk4 kinase domain via a competition binding assay based on fluorescence polarization. […]
1.3.6 Fluorescence Polarization assay & competition assay […]
plate (Greiner Bio-One). Upon mixture of protein and ligand, the plate was incubated for 30 min at room temperature followed by fluorescence polarization measurements by a plate reader (TECAN Spark® 20M) using 485 nm as excitation wavelength (bandwidth 20 nm) and 535 nm as emission wavelength (bandwidth 25 nm). The obtained fluorescence polarization values from each well were plotted against the concentration of the protein. The apparent Kd values were obtained by fitting the curve to the […]
FP = FP + FPmax ― FPmin (C + C + K ― (C + C + K )2 ― 4C C ) […]
protein should be around the Kd of the tracer to ensure that enough free protein that can bind the […]
competitor, and enough signal change coming from binding and unbinding of the tracer. The solution of the tracer and protein was titrated with increasing amounts of competitors, in our case SiR650- and […]
The mixture was then incubated for an hour at room temperature and the FP was then measured on a plate reader using the same conditions as mentioned before. From the obtained FP values, we have calculated the amount of free protein in the solution for each concentration of competitor using the equation of the single-site binding isotherm:
Pfree = Kd_tracer FP ― FP
Where Pfree is concentration of free protein, Kd tracer represents the previously determined binding affinity
A general note: Fluorescence polarisation rises when a labelled molecule tumbles more slowly, as on binding a larger partner.

Assay [2] has as its target T2, endogenous Plk4 in HeLa cells expressing Centrin1-GFP (Homo sapiens, UniProt O00444).
T2 construct: live cell imaging of endogenous Plk4; endogenous in cells; host or cells: HeLa cells stably expressing Centrin1-GFP
T2 sequence (O00444 1-970): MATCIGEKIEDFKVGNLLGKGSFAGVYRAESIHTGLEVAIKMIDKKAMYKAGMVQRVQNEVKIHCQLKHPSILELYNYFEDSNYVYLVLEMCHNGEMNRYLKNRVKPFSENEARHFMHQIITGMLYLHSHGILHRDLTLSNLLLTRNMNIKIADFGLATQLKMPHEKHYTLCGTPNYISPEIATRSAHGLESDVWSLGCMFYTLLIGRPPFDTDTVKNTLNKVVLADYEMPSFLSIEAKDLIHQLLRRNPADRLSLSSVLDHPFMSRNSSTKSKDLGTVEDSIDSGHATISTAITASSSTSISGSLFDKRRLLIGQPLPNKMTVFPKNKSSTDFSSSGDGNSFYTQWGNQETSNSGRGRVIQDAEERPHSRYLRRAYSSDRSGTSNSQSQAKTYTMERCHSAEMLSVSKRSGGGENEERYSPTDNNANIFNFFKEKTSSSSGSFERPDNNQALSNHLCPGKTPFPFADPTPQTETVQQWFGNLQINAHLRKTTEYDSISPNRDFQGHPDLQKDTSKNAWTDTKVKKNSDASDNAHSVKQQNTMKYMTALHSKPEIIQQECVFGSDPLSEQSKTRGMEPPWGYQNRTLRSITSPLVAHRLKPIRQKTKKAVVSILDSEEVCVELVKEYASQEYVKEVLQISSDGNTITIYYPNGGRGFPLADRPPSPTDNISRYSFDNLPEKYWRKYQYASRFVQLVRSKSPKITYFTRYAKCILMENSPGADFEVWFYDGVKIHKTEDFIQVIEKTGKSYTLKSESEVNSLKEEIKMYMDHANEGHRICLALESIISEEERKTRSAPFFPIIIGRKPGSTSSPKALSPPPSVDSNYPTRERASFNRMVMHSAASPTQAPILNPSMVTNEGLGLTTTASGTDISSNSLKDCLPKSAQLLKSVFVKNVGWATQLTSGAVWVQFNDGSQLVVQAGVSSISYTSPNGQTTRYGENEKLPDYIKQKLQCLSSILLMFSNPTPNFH
Briefly: Live- and fixed-cell confocal/STED imaging of endogenous Plk4. It is filed as cell-based. The following applies: added to live cells in culture, 1 µM (Figure S1).

Assay [3] concerns the target T3, 6xHis-tagged Plk4 kinase domain (KD) (Homo sapiens, UniProt O00444).
T3 construct: Plasmids encoding fragments of Plk4 kinase domain (2-275) with 6xHis-tag were cloned in pET system vectors; made in house; host or cells: E. coli BL21 gold (DE3)
T3 sequence (O00444 2-275): T1 sequence (O00444 2-275)
Briefly: Estimation of fluorescence increase (fluorogenicity) with Plk4 kinase domain versus BSA. The conditions noted are these: mean of F(+Plk4KD)/F(+BSA) and standard deviation, N = 3; probe 3 µM, 1 h 37 °C. From the text:
Moreover, we substituted the basic acetyl-piperazine nitrogen in compounds (1 and 2a) with an acetyl-piperidine, to avoid probe protonation and accumulation in endolysosomal compartments (Figure S1A, B).[23] This yielded a second generation of centrinone-based probes (compounds 2b–d). These probes were characterized first in vitro by measuring their fluorogenicity in the presence of the 6xHis-tagged Plk4 kinase domain (KD) (Table 1). […] Next, we measured the binding affinities of the probes to the Plk4 kinase domain via a competition binding assay based on fluorescence polarization. […]
1.3.5 Estimation of fluorescence increase
The probes were analysed as described in Lukinavičius et al. 2014 1. Briefly, SiR650 or SiR595- […]
purified Plk4 kinase domain (10 µM in 20 mM Tris, 200 mM NaCl at pH 7.5) or to a bovine serum albumin (BSA) (Sigma) solution (0.2 mg/mL in 20 mM Tris, 200 mM NaCl at pH 7.5). Final concentration of the probe was 3 µM. The samples were incubated for 1 h at 37 °C, and fluorescence was measured in a 96-well plate (Greiner Bio-One) on a plate reader (TECAN Spark® 20M).
Fluorescence emission was recorded from 570 nm to 750 nm for SiR595 probes, and 630 nm to 750 nm for SiR650 while exciting at 550 nm ± 10 nm for SiR595 probes and at 610 ± 10 nm for SiR650 probes.
A fluorescence excitation scan was recorded by measuring the emission at 660 ± 10 nm for SiR595 and 720 ± 10 nm for SiR650 probes, while exciting from 500 nm to 640 nm for SiR595 probes and from […]

The subject of assay [4] is HeLa cells expressing Centrin1-GFP. Briefly: Centriole phenotypic scoring (number of Centrin1-GFP foci). The assay is classed as cell-based, human. The conditions noted are these: 24 h incubation, scoring of Centrin1-GFP foci. An excerpt:
Having established that SiR595-centrinone (2d) can successfully label overexpressed Plk4, we wanted to investigate whether it also marks endogenous Plk4. […] In contrast, partial Plk4 inhibition leads to increased levels of centriolar Plk4 due to partial interference with protein degradation mediated by autophosphorylation, overall resulting in centriole overamplification.[8] Therefore, both under-duplication and overamplification of centrioles can be used as a proxy for SiR595-centrinone binding to endogenous Plk4. […] We conclude that the failure of SiR595-centrinone (2d) to detect endogenous Plk4 is due to the low binding affinity of the probe in combination with low protein levels. […] In the second step, the Plk4-bound molecule is specifically reacted with an appropriate fluorogenic tetrazine dye.[27]−[33] This strategy was applied previously successfully to label various protein targets in live and fixed cells,[30],[32],[34]−[38] and we reasoned that a smaller and potentially more permeable Cen-TCO (3) derivative would likewise enable more efficient labeling of endogenous Plk4.
We conjugated trans-cyclooctene to the previously obtained compound (4) to obtain Cen-TCO (3) using the synthetic route outlined in Scheme S2. The resulting Cen-TCO (3) reacted with an appropriate tetrazine, such as SiR650-TetH (4a) (Figure S4A). The reaction was followed by LC-MS, and the data confirmed quantitative conversion of Cen-TCO (3) to the appropriate cycloaddition product Cen-Click-SiR650 (Figure S4A, D). […] To assess the phenotype caused by Cen-TCO (3), we incubated HeLa cells expressing Centrin1-GFP with different concentrations of Cen-TCO (3) for 24 h, followed by scoring of Centrin1-GFP foci numbers (Figure S5B). […] Despite the high unspecific background signal, a clear focus could be detected at centrioles (Figure 4B). […] The fwhm of the circular signal in this case was 368 ± 26 (N = 6) (Figure S7B), which corresponds to the size measured with overexpressed GFP-Plk4(K41M) (see Figure 3D), and approximately that of the torus region surrounding the centriole.[40] […]

Structures are written as SMILES.

The Kd is the equilibrium constant for the complex coming apart. A lower Kd goes with a tighter complex. For `COc1c(Nc2cc(C)[nH]n2)nc(Sc2ccc(S(=O)(=O)Cc3cccc([N+](=O)[O-])c3F)cc2F)nc1N1CCN(CC(=O)NCCOCCNC(=O)c2ccc(C(=O)O)c(C3=C4C=CC(=N)C=C4[Si](C)(C)c4cc(N)ccc43)c2)CC1` [2a], the Kd in assay [1] stood at 0.026 ± 0.003 µM. Also, the “unspecific labeling in live human cells” value in assay [2] is listed as “high unspecific labeling”. Besides, the FPIk4/FBSA in assay [3] is 10 ± 1.
In assay [1], `COc1c(Nc2cc(C)[nH]n2)nc(Sc2ccc(S(=O)(=O)Cc3cccc([N+](=O)[O-])c3F)cc2F)nc1N1CCC(CC(=O)NCCOCCNC(=O)c2ccc(C(=O)O)c(C3=C4C=CC(=N)C=C4[Si](C)(C)c4cc(N)ccc43)c2)CC1` [2b] returned a Kd of 0.014 ± 0.004 µM. Also, the FPIk4/FBSA in assay [3] is 23 ± 1.
For `COc1c(Nc2cc(C)[nH]n2)nc(Sc2ccc(S(=O)(=O)Cc3cccc([N+](=O)[O-])c3F)cc2F)nc1N1CCC(CC(=O)NCCCCNC(=O)c2ccc(C(=O)O)c(C3=C4C=CC(=N)C=C4[Si](C)(C)c4cc(N)ccc43)c2)CC1` [2c], in that order: 0.023 ± 0.006 µM and 14 ± 2.
`COc1c(Nc2cc(C)[nH]n2)nc(Sc2ccc(S(=O)(=O)Cc3cccc([N+](=O)[O-])c3F)cc2F)nc1N1CCOCC1` [centrinone, reference compound]: the “concentration causing the centriole under-duplication phenotype” value in assay [4] is on record as not below 250 nM.
In assay [1], `COc1c(Nc2cc(C)[nH]n2)nc(Sc2ccc(S(=O)(=O)Cc3cccc([N+](=O)[O-])c3F)cc2F)nc1N1CCN(CC(=O)NCCOCCNC(=O)c2ccc(C(=O)[O-])c(C3=C4C=CC(=[N+](C)C)C=C4[Si](C)(C)c4cc(N(C)C)ccc43)c2)CC1` [compound 1] returned a Kd of 0.048 ± 0.006 µM. Besides, in assay [2], the “unspecific labeling in live human cells” value was “high unspecific labeling”. Also, in assay [3], the FPIk4/FBSA is 4 ± 1.
